Test results reported in ChEMBL document CHEMBL2073954, “Transport activity of human MRP3 expressed in Sf9 cells: comparative studies with rat MRP3” (Pharm Res, 2002).

Assays:
[1] = molecular target: T1, ATP-binding cassette sub-family C member 3 (Rattus norvegicus, UniProt O88563); experiment: (§1) TP_TRANSPORTER: uptake in membrane vesicles from Mrp3-expressing Sf9 cells; assay type: functional, cell membranes, Membrane vesicle
[2] = molecular target: T1, ATP-binding cassette sub-family C member 3; experiment: TP_TRANSPORTER: inhibition of E217betaG uptake in membrane vesicles from Mrp3-expressing Sf9 cells; assay type: functional, cell membranes, Membrane vesicle
[3] = molecular target: Multidrug resistance associated protein (Homo sapiens, UniProt Q96QA9); experiment: (§2) TP_TRANSPORTER: inhibition of E217betaG uptake in membrane vesicle from MRP3-expressing Sf9 cells; assay type: functional, cell membranes
[4] = molecular target: T1, ATP-binding cassette sub-family C member 3; experiment: as §2; assay type: functional, cell membranes
[5] = substrate: C[C@]12CC[C@@H]3c4ccc(O)cc4CC[C@H]3[C@@H]1CC[C@@H]2O[C@@H]1O[C@H](C(=O)O)[C@@H](O)[C@H](O)[C@H]1O; details: Sf9; Membrane vesicle
Description: TP_TRANSPORTER: uptake in membrane vesicle from MRP3-expressing Sf9 cells

[6] = substrate: C[C@]12CC[C@@H]3c4ccc(O)cc4CC[C@H]3[C@@H]1CC[C@@H]2O[C@@H]1O[C@H](C(=O)O)[C@@H](O)[C@H](O)[C@H]1O; experiment: as §1; assay type: functional, cell membranes, Membrane vesicle

CCCCC/C=C\C\C=C/C=C/C=C/[C@@H](SC[C@@H](NC(=O)CC[C@H](N)C(=O)O)C(=O)NCC(=O)O)[C@@H](O)CCCC(=O)O [LEUKOTRIEN C4] was tested, and the Activity [1] was “substrate [+]”.

For O=C(O)[C@H]1O[C@@H](OCc2cc(=O)oc3cc(O)ccc23)[C@H](O)[C@@H](O)[C@@H]1O, the Ki [2] was 77 µM and the Ki [3] was 105 µM.

With N[C@@H](CCC(=O)N[C@H](CSc1ccc([N+](=O)[O-])cc1[N+](=O)[O-])C(=O)NCC(=O)O)C(=O)O the Activity [1] was “substrate [+]”, the Ki [2] was 83.8 µM and the Ki [3] was 337 µM.

CNc1nc2c(Cc3cccnc3)c(C)c(O[C@@H]3O[C@H](C(=O)O)[C@@H](O)[C@H](O)[C@H]3O)c(C)c2s1 [E3040 GLUCURONIDE] was tested, and the Activity [1] was “substrate [+]”, the Ki [4] was 2.6 µM and the Ki [3] was 5.6 µM.

CN(Cc1cnc2nc(N)nc(N)c2n1)c1ccc(C(=O)N[C@@H](CCC(=O)O)C(=O)O)cc1 [METHOTREXATE] was tested, and the Ki [2] was 90 µM and the Ki [3] was 1200 µM.

B1: Multidrug resistance associated protein (Homo sapiens), Q96QA9 (protein)
chain: MDALCGSGELGSKFWDSNLSVHTENPDLTPCFQNSLLAWVPCIYLWVALPCYLLYLRHHCRGYIILSHLSKLKMVLGVLLWCVSWADLFYSFHGLVHGRAPAPVFFVTPLVVGVTMLLATLLIQYERLQGVQSSGVLIIFWFLCVVCAIVPFRSKILLAKAEGEISDPFRFTTFYIHFALVLSALILACFREKPPFFSAKNVDPNPYPETSAGFLSRLFFWWFTKMAIYGYRHPLEEKDLWSLKEEDRSQMVVQQLLEAWRKQEKQTARHKASAAPGKNASGEDEVLLGARPRPRKPSFLKALLATFGSSFLISACFKLIQDLLSFINPQLLSILIRFISNPMAPSWWGFLVAGLMFLCSMMQSLILQHYYHYIFVTGVKFRTGIMGVIYRKALVITNSVKRASTVGEIVNLMSVDAQRFMDLAPFLNLLWSAPLQIILAIYFLWQNLGPSVLAGVAFMVLLIPLNGAVAVKMRAFQVKQMKLKDSRIKLMSEILNGIKVLKLYAWEPSFLKQVEGIRQGELQLLRTAAYLHTTTTFTWMCSPFLVTLITLWVYVYVDPNNVLDAEKAFVSVSLFNILRLPLNMLPQLISNLTQASVSLKRIQQFLSQEELDPQSVERKTISPGYAITIHSGTFTWAQDLPPTLHSLDIQVPKGALVAVVGPVGCGKSSLVSALLGEMEKLEGKVHMKGSVAYVPQQAWIQNCTLQENVLFGKALNPKRYQQTLEACALLADLEMLPGGDQTEIGEKGINLSGGQRQRVSLARAVYSDADIFLLDDPLSAVDSHVAKHIFDHVIGPEGVLAGKTRVLVTHGISFLPQTDFIIVLADGQVSEMGPYPALLQRNGSFANFLCNYAPDEDQGHLEDSWTALEGAEDKEALLIEDTLSNHTDLTDNDPVTYVVQKQFMRQLSALSSDGEGQGRPVPRRHLGPSEKVQVTEAKADGALTQEEKAAIGTVELSVFWDYAKAVGLCTTLAICLLYVGQSAAAIGANVWLSAWTNDAMADSRQNNTSLRLGVYAALGILQGFLVMLAAMAMAAGGIQAARVLHQALLHNKIRSPQSFFDTTPSGRILNCFSKDIYVVDEVLAPVILMLLNSFFNAISTLVVIMASTPLFTVVILPLAVLYTLVQRFYAATSRQLKRLESVSRSPIYSHFSETVTGASVIRAYNRSRDFEIISDTKVDANQRSCYPYIISNRWLSIGVEFVGNCVVLFAALFAVIGRSSLNPGLVGLSVSYSLQVTFALNWMIRMMSDLESNIVAVERVKEYSKTETEAPWVVEGSRPPEGWPPRGEVEFRNYSVRYRPGLDLVLRDLSLHVHGGEKVGIVGRTGAGKSSMTLCLFRILEAAKGEIRIDGLNVADIGDPILFSGTLRMNLDPFGSYSEEDIWWALELSHLHTFVSSQPAGLDFQCSEGGENLSVGQRQLVCLARALLRKSRILVLDEATAAIDLETDNLIQATIRTQFDTCTVLTIAHRLNTIMDYTRVLVLDKGVVAEFDSPANLIAARGIFYGMARDAGLA
B1 was tested, and the Km [5] was 42.9 µM.

B2: ATP-binding cassette sub-family C member 3 (Rattus norvegicus) (protein)
chain: MDRLCGSGELGSKFWDSNLTVYTNTPDLTPCFQNSLLAWVPCIYLWAALPCYLFYLRHHRLGYIVLSCLSRLKTALGVLLWCISWVDLFYSFHGLVHGSSPAPVFFITPLLVGITMLLATLLIQYERLRGVRSSGVLIIFWLLCVICAIIPFRSKILLALAEGKILDPFRFTTFYIYFALVLCAFILSCFQEKPPLFSPENLDTNPCPEASAGFFSRLSFWWFTKLAILGYRRPLEDSDLWSLSEEDCSHKVVQRLLEAWQKQQTQASGPQTAALEPKIAGEDEVLLKARPKTKKPSFLRALVRTFTSSLLMGACFKLIQDLSPSSTHSCSASSSGLFRPHGPYWWGFLLAGLMFVSSTMQTLILHQHYHCIFVMALRIRTAIIGVIYRKALTITNSVKREYTVGEMVNLMSVDAQRFMDVSPFINLLWSAPLQVILAIYFLWQILGPSALAGVAVIVLLIPLNGAVSMKMKTYQVQQMKFKDSRIKLMSEILNGIKVLKLYAWEPTFLEQVEGIRQGELQLLRKGAYLQAISTFIWVCTPFMVTLITLGVYVCVDKNNVLDAEKAFVSLSLFNILKIPLNLLPQLISGMTQTSVSLKRIQDFLNQDELDPQCVERKTISPGRAITIHNGTFSWSKDLPPTLHSINIQIPKGALVAVVGPVGCGKSSLVSALLGEMEKLEGAVSVKGSVAYVPQQAWIQNCTLQENVLFGQPMNPKRYQQALETCALLADLDVLPGGDQTEIGEKGINLSGGQRQRVSLARAVYSDANIFLLDDPLSAVDSHVAKHIFDQVIGPEGVLAGKTRVLVTHGISFLPQTDFIIVLADGQITEMGHYSELLQHDGSFANFLRNYAPDENQEANEGVLQHANEEVLLLEDTLSTHTDLTDTEPAIYEVRKQFMREMSSLSSEGEGQNRPVLKRYTSSLEKEVPATQTKETGALIKEEIAETGNVKLSVYWDYAKSVGLCTTLFICLLYAGQNAVAIGANVWLSAWTNDVEEHGQQNNTSVRLGVYATLGILQGLLVMLSAFTMVVGAIQAARLLHTALLHNQIRAPQSFFDTTPSGRILNRFSKDIYVIHEVLAPTILMLFNSFYTSISTIVVIVASTPLFCVVVLPLAVFYGFVQRFYVATSRQLKRLESVSRSPIFSHFSETVTGTSVIRAYGRVQDFKVLSDAKVDSNQKTTYPYIASNRWLGVHVEFVGNCVVLFSALFAVIGRNSLNPGLVGLSVSYALQVTLSLNWMIRTLSDLESNIIAVERVKEYSKTETEAPWVLESNRAPEGWPRSGVVEFRNYSVRYRPGLELVLKNLTLHVQGGEKVGIVGRTGAGKSSMTLCLFRILEAAEGEIFIDGLNVAHIGLHDLRSQLTIIPQDPILFSGTLRMNLDPFGRYSDEDIWRTLELSHLSAFVSSQPTGLDFQCSEGGDNLSVGQRQLVCLARALLRKSRVLVLDEATAAIDLETDDLIQGTIRTQFEDCTVLTIAHRLNTIMDYNRVLVLDKGVVAEFDSPVNLIAAGGIFYGMAKDAGLA
For B2, the Km [6] was 33.4 µM.
